Earlier results on 1 compound are cited in paper PMC11839646, “HPK1 kinase inhibitor: a sufficient approach to target HPK1 to modulate T cell activation in cancer immunotherapy compared with degraders” (Frontiers in Immunology, 2025).

The data set relates to HPK1. On the set-up: method as in PMID 32860752, PMID 39446986, PMID 39568237. The note with it: preclinical; cited from earlier work.

As to `CC(C)(O)C#Cc1cccc(COc2cc(-c3cnc(C4CCN(C(=O)CCOCCOCCOCCOCCOc5cccc6c5C(=O)N(C5CCC(=O)NC5=O)C6=O)CC4)s3)cnc2N)c1` (stereo not shown) [SS47], the “Tumor suppression compared to the corresponding warhead” value is given as “greater tumor suppression”.
